Reference: patent publication US20250127790A1, “COMBINATION THERAPY USING VPS34 INHIBITORS” (Deciphera Pharmaceuticals, LLC, priority 2021, published 2025)

Key:
[1] = system: A-498 renal cell carcinoma cells; experiment: qRT-PCR with siRNA knockdown of STING pathway genes, A-498 cells; assay type: cell-based, Human; details: 24 h; for increase in mRNA expression of CCL5 / increase in mRNA expression of CXCL10 / increase in mRNA expression of IFNB1 / increase in mRNA expression of IRF7 / IFNB1, IRF7, CCL5 and CXCL10 expression with siRNA knockdown of CGAS / IFNB1, IRF7, CCL5 and CXCL10 expression with siRNA knockdown of STING: 2 μM; for IFNB1, IRF7, CCL5 and CXCL10 expression with siRNA knockdown of CGAS: siCGAS; for IFNB1, IRF7, CCL5 and CXCL10 expression with siRNA knockdown of CGAS / IFNB1, IRF7, CCL5 and CXCL10 expression with siRNA knockdown of STING / IFNB1, IRF7, CCL5 or CXCL10 expression with siRNA knockdown of TBK1: vs compound alone; for IFNB1, IRF7, CCL5 and CXCL10 expression with siRNA knockdown of STING: siSTING; for IFNB1, IRF7, CCL5 or CXCL10 expression with siRNA knockdown of TBK1: siTBK1, 2 μM
Method: A-498 cells were grown in Minimal Essential Medium containing 10% fetal bovine serum. Cells were then incubated for 2 days at 37 degrees Celsius, 5% CO2, and 95% humidity. A498 cells were transfected with scrambled siRNA control (siSCR) or siRNA targeting TBK1 (siTBK1), STING (siSTING) or CGAS (siCGAS). After 48 h cells were treated with DMSO or 2 μM of VPS34 inhibitor (Compound 1 or Compound 2) for 24 h. Cells were washed with PBS and RNA was isolated using the PureLink RNA kit (#12183018A, Thermo Fisher Scientific) according to the manufacturer's protocol. Genomic DNA was removed using DNA-binding columns (RNeasy plus kit, #74134, Qiagen) and/or DNase treatment (#12185010, Thermo Fisher Scientific). RNA was quantified using NanoDrop (Thermo Fisher Scientific) and 50 ng/μL RNA was used for cDNA synthesis with SuperScript IV VILO Master Mix (#11756050, Thermo Fisher Scientific). Quantitative RT-PCR (qRT-PCR) was run with diluted cDNA (1:25 or 1:12.5), PowerUp SYBR Green Master Mix (#A25741, Thermo Fisher Scientific), and 200 nM primers (see below) on a CFX Connect RT-PCR system (BioRad). Data was analyzed using the ΔΔCT method. Results are mean±SEM of three independent experiments.

[2] = system: A-498 renal cell carcinoma cells; experiment: Western blot, STING pathway proteins with siRNA knockdown, A-498 cells; assay type: cell-based; details: 24 h; for CGAS level / STING level / p-IRF3 level / p-STAT1 level / p-TKB1 level / p-IRF3 and p-STAT1 levels with siRNA knockdown of CGAS / p-TKB1 level with siRNA knockdown of CGAS / p-IRF3 and p-STAT1 levels with siRNA knockdown of STING / p-TBK1 level with siRNA knockdown of STING: 2 μM; for CGAS level / STING level / p-IRF3 level / p-STAT1 level / p-TKB1 level: vs DMSO alone; for p-IRF3 and p-STAT1 levels with siRNA knockdown of CGAS / p-TKB1 level with siRNA knockdown of CGAS: siCGAS; for p-IRF3 and p-STAT1 levels with siRNA knockdown of CGAS / p-TKB1 level with siRNA knockdown of CGAS / p-IRF3 and p-STAT1 levels with siRNA knockdown of STING / p-TBK1 level with siRNA knockdown of STING: vs compound alone; for p-IRF3 and p-STAT1 levels with siRNA knockdown of STING / p-TBK1 level with siRNA knockdown of STING: siSTING; for STING level with siRNA knockdown of TBK1 / CGAS level with siRNA knockdown of TBK1: siTBK1, 2 μM; for CGAS level with siRNA knockdown of TBK1: vs DMSO
Method: (§1) A-498 cells were transfected with scrambled siRNA control (siSCR) or siRNA targeting TBK1 (siTBK1), STING (siSTING) or CGAS (siCGAS). After 48 h cells were treated with DMSO or 2 μM of VPS34 inhibitor (Compound 1 or Compound 2) for 24 h. A-498 cells were washed in PBS and lysed in RIPA buffer (50 mM Tris HCl pH=7.4, 150 mM NaCl, 1% Triton X-100, 0.5% Na-deoxycholate, 0.1% SDS) containing protease inhibitor cocktail (#11836170001, Roche), and phosphatase inhibitor (#11836170001, Roche) for 10 min at 4° C. After centrifugation at 15000 rpm for 10 min at 4° C., the supernatant was obtained, and protein concentration was quantified using BCA assay (#23225, Thermo Fisher). Equal amounts were mixed with 0.1 M DTT and LDS Sample Buffer (#84788, Thermo Fisher), heated for 5 min at 90° C. before loading onto 4-12% Bis-Tris gels. Proteins were transferred to nitrocellulose membranes. Membranes were blocked in 5% non-fat dry milk in TBS with 0.05% Tween (TBS-T) for 1 h at RT, washed in TBS-T, and probed with primary antibodies shaking overnight at 4° C. After washing in TBS-T, membranes were incubated with IRDye 800CW goat anti-rabbit or IRDye 680RD donkey anti-mouse IgG (H+L) (#926-32211 and #926-68072, respectively, LI-COR, 1:10,000 dilution) secondary antibody in Intercept blocking buffer (#927-60001, LI-COR) for 1 h at RT. After washing in TBS-T, membranes were imaged using the Odyssey CLx (LI-COR). Band intensities were quantified using Image Studio Lite software version 5.2.5 (LI-COR).

[3] = system: 786-O renal cell carcinoma cells; experiment: Western blot, STING pathway proteins with siRNA knockdown, 786-O cells; assay type: cell-based; details: 24 h; for CGAS level / STING level / p-IRF3 level / p-STAT1 level / p-TKB1 level / p-IRF3 and p-STAT1 levels with siRNA knockdown of CGAS / p-TKB1 level with siRNA knockdown of CGAS / p-IRF3 and p-STAT1 levels with siRNA knockdown of STING / p-TBK1 level with siRNA knockdown of STING: 2 μM; for CGAS level / STING level / p-IRF3 level / p-STAT1 level / p-TKB1 level: vs DMSO alone; for p-IRF3 and p-STAT1 levels with siRNA knockdown of CGAS / p-TKB1 level with siRNA knockdown of CGAS: siCGAS; for p-IRF3 and p-STAT1 levels with siRNA knockdown of CGAS / p-TKB1 level with siRNA knockdown of CGAS / p-IRF3 and p-STAT1 levels with siRNA knockdown of STING / p-TBK1 level with siRNA knockdown of STING: vs compound alone; for p-IRF3 and p-STAT1 levels with siRNA knockdown of STING / p-TBK1 level with siRNA knockdown of STING: siSTING; for STING level with siRNA knockdown of TBK1 / CGAS level with siRNA knockdown of TBK1: siTBK1, 2 μM; for CGAS level with siRNA knockdown of TBK1: vs DMSO
Method: as §1, with “786-O” for “A-498”

SMILES	increase in mRNA expression of CCL5 [1]	increase in mRNA expression of CXCL10 [1]	increase in mRNA expression of IFNB1 [1]	increase in mRNA expression of IRF7 [1]	IFNB1, IRF7, CCL5 and CXCL10 expression with siRNA knockdown of CGAS [1]	IFNB1, IRF7, CCL5 and CXCL10 expression with siRNA knockdown of STING [1]	IFNB1, IRF7, CCL5 or CXCL10 expression with siRNA knockdown of TBK1 [1]	CGAS level [2]	STING level [2]	p-IRF3 level [2]	p-STAT1 level [2]	p-TKB1 level [2]	p-IRF3 and p-STAT1 levels with siRNA knockdown of CGAS [2]	p-TKB1 level with siRNA knockdown of CGAS [2]	p-IRF3 and p-STAT1 levels with siRNA knockdown of STING [2]	p-TBK1 level with siRNA knockdown of STING [2]	STING level with siRNA knockdown of TBK1 [2]	CGAS level with siRNA knockdown of TBK1 [2]	CGAS level [3]	STING level [3]	also measured
C[C@@H]1COCCN1c1cc(N2CCCC[C@@H]2C(F)(F)F)[nH]c(=O)c1 [Compound 1, 4-((R)-3-methylmorpholino)-6-((R)-2-(trifluoromethyl)piperidin-1-yl)pyridin-2(1H)-one]	> 4 fold	> 5 fold	> 5 fold	~4 fold	complete ablation	complete ablation	moderate or negligible changes	mild increase	increase	strong increases	strong increases	increase	complete loss	decrease	complete loss	decrease	increase	increase	mild increase	increase	p-IRF3 level [3]: strong increases; p-STAT1 level [3]: strong increases; p-TKB1 level [3]: increase; p-IRF3 and p-STAT1 levels with siRNA knockdown of CGAS [3]: complete loss; p-TKB1 level with siRNA knockdown of CGAS [3]: decrease; p-IRF3 and p-STAT1 levels with siRNA knockdown of STING [3]: complete loss; p-TBK1 level with siRNA knockdown of STING [3]: decrease; STING level with siRNA knockdown of TBK1 [3]: increase; CGAS level with siRNA knockdown of TBK1 [3]: increase
C[C@@H]1COCCN1c1cc(=O)n2c(n1)N(Cc1cncc(Cl)c1)[C@H](C(F)(F)F)CC2 [Compound 2, (S)-9-((5-chloropyridin-3-yl)methyl)-2-((R)-3-methylmorpholino)-8-(trifluoromethyl)-6,7,8,9-tetrahydro-4H-pyrimido[1,2-a]pyrimidin-4-one]	~8 fold	~10 fold	> 10 fold	~7 fold	complete ablation	complete ablation	moderate or negligible changes	mild increase	increase	strong increases	strong increases	increase	complete loss	decrease	complete loss	decrease	increase	increase	mild increase	increase	p-IRF3 level [3]: strong increases; p-STAT1 level [3]: strong increases; p-TKB1 level [3]: increase; p-IRF3 and p-STAT1 levels with siRNA knockdown of CGAS [3]: complete loss; p-TKB1 level with siRNA knockdown of CGAS [3]: decrease; p-IRF3 and p-STAT1 levels with siRNA knockdown of STING [3]: complete loss; p-TBK1 level with siRNA knockdown of STING [3]: decrease; STING level with siRNA knockdown of TBK1 [3]: increase; CGAS level with siRNA knockdown of TBK1 [3]: increase
